US6060504A, “N-methyl-N-[(1S)-1-phenyl-2-(3S)-hydroxypyrrolidin-1-yl)ethyl]-2 -2-diphenylacetamide” (priority 1995, dated 2000)
Where a name gives a salt, the structure may show the parent alone. Read-outs that look alike come from different tables or passages of the source.

Experiments:
pKa = format: physicochemical
Solubility in water = format: physicochemical; conditions: at 20° C.
Solubility in methanol = format: physicochemical; conditions: organic solvent or mixture, at 20° C.
[1] = format: physicochemical
Experimental: In the case of these two types, not only their melting behavior differs but also their storage stabilities. […] During DSC determination (DSC=Differential Scanning Calorimetry)of the crystal form of type II, on slow heating above the melting point at approximately 200° C. the crystal type IV which melts at approximately 220-226° C. crystallizes out. Crystal type IV is also detected when a melt of type II (just above 200° C.) is suddenly cooled and stored at room temperature for a period of 12 to 16 hours. […] In contrast to this, however, by seeding with seed crystals of type […] the crystal form IV is especially obtained. Additionally, the solubility of the crystal type IV in aqueous solution is lower than that of type II.

[2] = Solubility of crystal types in aqueous solution; format: physicochemical
[3] = pharmaceutical activity of crystal forms; format: in vivo
writhing (pain) = test: writhing test; format: in vivo; conditions: mice or rats
Source text: Experiments have shown that the compound according to the invention is active in the "writhing test" on mice or rats (method cf. Siegmund et al., Proc. Soc. Exp. Biol. 95, (1957), 729-731).

[4] = tested on: carrageenan-induced hyperalgesia; test: carrageenan-induced hyperalgesia model; format: in vivo; conditions: rats
physical dependence = physical dependence / dependence potential; format: in vivo
[5] = anti-inflammatory, diuretic, anticonvulsive and neuroprotective actions (familiar methods); conditions: in vivo
kappa-receptors = test: binding to kappa-receptors
[6] = blood-brain barrier passage; conditions: due to its structure
side effects = conditions: in vivo
intestinal motility = test: inflammatory bowel disorders / intestinal motility; format: in vivo; conditions: inflammatory bowel disorder
burns = test: treatment of burns and sunburn; format: in vivo; conditions: heat, flames, severe sunburn
allergic skin reactions = test: treatment of allergies to the sun; format: in vivo
neurodermatitis = test: treatment of neurodermatitis; format: in vivo
[7] = tested on: rheumatic disorders and back conditions; test: treatment of rheumatic disorders and back conditions; format: in vivo
[8] = tested on: inflammation-related hyperalgesias; test: analgesic action / inflammation-related hyperalgesias; conditions: in vivo
[9] = listed as N-methyl-N-[(1S)-1-phenyl-2-((3S)-3-hydroxypyrrolidin-1-yl)ethyl]-2,2-diphenylac

SMILES: CN(C(=O)C(c1ccccc1)c1ccccc1)[C@H](CN1CC[C@H](O)C1)c1ccccc1 [Comparison Example, N-methyl-N-[(1S)-1-phenyl-2-((3S)-3-hydroxypyrrolidin-1-yl)ethyl]-2.2-diphenylacetamide hydrochloride]
- pKa (pKa; read-out: pKa): 7.4
- solubility (Solubility in water): 11.6 mg/mL
- solubility (Solubility in methanol): 63.1 mg/mL
- stability of crystal form [1]: metastable
- storage at high humidity ([1]; atmospheric humidity approximately 73% to 95%): A form designated as type III is obtained
- storage at 170° C. ([1]; drying oven at 170° C.): a partial conversion into type IV was detected
- seven months' storage ([1]; seven months, room temperature): a start of conversion to the thermostable crystal modification IV

SMILES: CN(C(=O)C(c1ccccc1)c1ccccc1)[C@H](CN1CC[C@H](O)C1)c1ccccc1.Cl [Example 1, N-methyl-N-[(1S)-1-phenyl-2-((3S)-3-hydroxypyrrolidin-1-yl)ethyl]-2,2-diphenylacetamide hydrochloride]
- pKa (pKa): 7.4
- solubility (Solubility in water): 7.6 mg/mL
- solubility (Solubility in methanol): 42.6 mg/mL
- solubility of crystal type IV relative to the solubility of type II [2]: 45% to 70

SMILES: CN(C(=O)C(c1ccccc1)c1ccccc1)[C@H](CN1CC[C@H](O)C1)c1ccccc1.Cl [N-methyl-N-[(1S)-1-phenyl-2-((3S)-3-hydroxypyrrolidin-1-yl)ethyl]-2,2-diphenylacetamide hydrochloride]
- effectiveness as medicament in all indication areas ([3]; all types of preparation forms): particularly effective

SMILES: CN(C(=O)C(c1ccccc1)c1ccccc1)[C@H](CN1CC[C@H](O)C1)c1ccccc1 [compound according to the invention, N-methyl-N-[(1S)-1-phenyl-2-((3S)-3-hydroxypyrrolidin-1-yl)ethyl]-2,2-diphenylacetamide]
- activity in the writhing test (writhing (pain)): active
- action in carrageenan-induced hyperalgesia model [4]: Particularly strong actions
- dependence potential (physical dependence; attributed to no blood-brain barrier passage): no dependence potential
- tendency to physical dependence (physical dependence; in vivo): no or only a small tendency to physical dependence
- anti-inflammatory action [5]: pronounced
- anticonvulsive action [5]: pronounced
- diuretic action [5]: pronounced
- neuroprotective action [5]: pronounced
- affinity to kappa-receptors (kappa-receptors): high affinity
- blood-brain barrier passage [6]: cannot pass through the blood-brain barrier
- side effects (side effects): no side effects have been found which would restrict the use
- side effects (side effects; [9]): without causing noticeable side effects
- intestinal motility normalization (intestinal motility): suitable for normalizing disorders of the intestinal motility
- intestinal motility normalization (intestinal motility; [9]): normalizes the motility of the intestine or sets it in motion again
- treatment of burns (burns): particularly suitable in the treatment of burns
- allergic skin reactions (allergic skin reactions): allergic skin reactions rapidly fade
- itching, allergies to the sun (allergic skin reactions): rapidly subsides
- inflammatory reactions, neurodermatitis (neurodermatitis): favorably influenced
- itching, neurodermatitis (neurodermatitis): the itching of the skin in this disorder subsides
- efficacy in rheumatic disorders and back conditions ([7]; in vivo): particularly effective
- normal motility of the gastrointestinal tract ([7]; rheumatic disorders and back conditions): not adversely affected
- analgesic actions [8]: particularly good analgesic actions
- antagonism of inflammation-related hyperalgesias [8]: antagonize
- dependence of pharmaceutical activity on crystal form ([3]; in vivo): relatively independent of the crystal form

SMILES: CN(C(=O)C(c1ccccc1)c1ccccc1)[C@H](CN1CC[C@H](O)C1)c1ccccc1 [type I, N-methyl-N-[(1S)-1-phenyl-2-((3S)-3-hydroxypyrrolidin-1-yl)ethyl]-2,2-diphenylacetamide]
- conversion of solvate type I ([1]; slow heating releases solvent): readily converted into another crystal type
